Assays:
Colo320 cells [1] = experiment: MTT antiproliferative assay, resistant cells; format: cell-based, human; conditions: for IC50: Homo sapiens, COLO 320, resistant Colo320, MTT, 72 h, mean ± SD, read-out: IC50 Colo320 (B); for SI (selectivity index) C/B: IC50 MRC-5 / IC50 Colo320; for RR (relative resistance ratio) B/A: IC50 resistant Colo320 / IC50 sensitive Colo205
Experimental: (§1) The human colon adenocarcinoma cell lines Colo205 doxorubicin-sensitive (CCL-222, ATCC, Manassas, VA, USA) and the resistant Colo320/MDR-LRP expressing P-gp were purchased from LGC Promochem (Teddington, UK). The MRC-5 human embryonal lung fibroblast cell line (CCL-171, ATCC) was purchased from Sigma-Aldrich (Merck KGaA, Darmstadt, Germany). The human colon adenocarcinoma cells (Colo205 and Colo320) were cultured in an RPMI 1640 medium supplemented with 10% fetal bovine serum (FBS), 2 mM L-glutamine, 1 mM Na-pyruvate, and 100 mM HEPES. The semi-adherent human colon cancer cells were detached with a trypsin-Versene (EDTA) solution for 5 min at 37 °C. The MRC-5 human embryonal lung fibroblast cells were cultured in EMEM containing 4.5 g/L of glucose and supplemented with a non-essential amino acid mixture, a selection of vitamins, and 10% FBS. The cell lines were incubated at 37 °C, 5% CO2, and 95% air atmosphere.
(§2) The antiproliferative effect of the compounds was tested in decreasing serial dilutions of compounds (starting with 100 µM, then two-fold serial dilution) on human cell lines (Colo205, Colo320, and MRC-5) in 96-well flat-bottomed microtiter plates. Firstly, the compounds were diluted in 100 µL of the medium, and then 6 × 10^3 cells (Colo205 and Colo320), in 100 µL of medium, were added to each well, excluding the medium control wells. The MRC-5 adherent cell line was seeded in the EMEM medium for at least 4 h before the assay. The two-fold serial dilutions of the compounds were made in a separate plate (100–0.19 μM) and then transferred to the plates containing the adherent corresponding cell line. Culture plates were incubated at 37 °C for 72 h, and at the end of the incubation period, 20 μL of MTT (thiazolyl blue tetrazolium bromide) solution (from a 5 mg/mL stock solution) was added to each well and incubated for an additional 4 h. Then, 100 μL of sodium dodecyl sulfate (SDS) solution (10% SDS in 0.01 M HCl) was added to each well, and the plates were further incubated at 37 °C overnight in a CO2 incubator. Cell growth was determined by measuring the optical density (OD) at 540/630 nm with a Multiscan EX ELISA reader (Thermo Labsystems, Cheshire, WA, USA). […] IC50 values and the standard deviation (SD) of triplicate experiments were calculated by using GraphPad Prism 5 software for Windows. Doxorubicin (2 mg/mL, Teva Pharmaceuticals, Budapest, Hungary) was used as a positive control and the vehicle DMSO as the negative control. (1) IC50=[ODsample−ODmedium control/ODcell control−ODmedium control]×100
(§3) The relative resistance (RR) was calculated as the ratio of the IC50 value in the resistant cancer cells and the IC50 in the sensitive cancer cell lines. The selectivity indexes (SI) were calculated as the ratio of the IC50 values in the non-tumor cells and the IC50 in the cancer cell lines. The activity of the compounds toward cancer cells is considered strongly selective if the selectivity index (SI) value is higher than 6, moderately selective if 3 < SI < 6, slightly selective if 1 < SI < 3, and non-selective if SI is lower than 1.

Colo205 cells = experiment: MTT antiproliferative assay, sensitive cells; format: cell-based, human; conditions: for IC50: Homo sapiens, COLO 205, sensitive Colo205, MTT, 72 h, mean ± SD; for SI (selectivity index) C/A: IC50 MRC-5 / IC50 Colo205
Experimental: as §1, §2, §3

[2] = target: T1, recombinant human P-gp membranes (Homo sapiens, UniProt P08183); experiment: P-gp-Glo ATPase activity assay; format: biochemical; conditions: 25 µM, basal activity = 100%
T1 construct: purchased Promega
T1 sequence (P08183 whole entry): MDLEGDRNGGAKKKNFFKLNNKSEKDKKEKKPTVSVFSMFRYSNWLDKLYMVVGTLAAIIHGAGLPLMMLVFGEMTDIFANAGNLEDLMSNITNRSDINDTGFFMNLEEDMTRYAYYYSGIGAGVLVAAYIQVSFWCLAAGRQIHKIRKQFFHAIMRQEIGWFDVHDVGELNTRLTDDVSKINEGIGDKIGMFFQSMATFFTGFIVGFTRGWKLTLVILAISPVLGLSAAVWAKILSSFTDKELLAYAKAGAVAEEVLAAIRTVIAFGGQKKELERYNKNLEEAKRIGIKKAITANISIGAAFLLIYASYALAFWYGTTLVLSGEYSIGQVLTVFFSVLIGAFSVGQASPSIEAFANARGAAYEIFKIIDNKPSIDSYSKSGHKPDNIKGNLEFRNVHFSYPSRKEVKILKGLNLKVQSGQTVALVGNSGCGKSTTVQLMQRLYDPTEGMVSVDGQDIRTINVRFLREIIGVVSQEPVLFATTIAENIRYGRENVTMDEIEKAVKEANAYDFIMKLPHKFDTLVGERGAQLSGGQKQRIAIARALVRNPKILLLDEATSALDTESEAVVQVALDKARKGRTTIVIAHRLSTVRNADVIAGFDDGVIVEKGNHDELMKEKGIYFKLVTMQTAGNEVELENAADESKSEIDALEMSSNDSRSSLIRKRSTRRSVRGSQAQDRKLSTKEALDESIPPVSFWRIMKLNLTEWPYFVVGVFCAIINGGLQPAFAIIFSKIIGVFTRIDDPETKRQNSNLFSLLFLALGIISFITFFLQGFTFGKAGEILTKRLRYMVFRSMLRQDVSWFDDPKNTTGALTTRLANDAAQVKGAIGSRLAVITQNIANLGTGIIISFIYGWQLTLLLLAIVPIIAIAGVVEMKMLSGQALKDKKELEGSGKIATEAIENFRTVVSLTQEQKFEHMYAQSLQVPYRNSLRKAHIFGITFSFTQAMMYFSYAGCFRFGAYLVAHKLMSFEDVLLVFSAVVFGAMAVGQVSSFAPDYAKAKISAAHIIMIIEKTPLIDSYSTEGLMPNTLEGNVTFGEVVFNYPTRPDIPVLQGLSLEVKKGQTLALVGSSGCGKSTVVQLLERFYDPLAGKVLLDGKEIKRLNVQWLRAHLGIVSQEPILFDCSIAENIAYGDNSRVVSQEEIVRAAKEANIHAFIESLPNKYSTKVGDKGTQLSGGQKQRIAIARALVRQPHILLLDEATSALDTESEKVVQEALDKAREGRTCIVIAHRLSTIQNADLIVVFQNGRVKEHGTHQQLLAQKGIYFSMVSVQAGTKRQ
Experimental: To evaluate the type of interaction between selected compounds and P-gp, namely to determine if they interacted as stimulators or inhibitors, the ATPase activity assay (P-gp.Glo^TM) was performed, using human P-gp membranes. This assay is based on the ATP consumption necessary for the efflux, obtained from ATP hydrolysis by light-generating firefly luciferase reaction. […] Vanadate is a selective and strong P-gp inhibitor. Therefore, the compounds can be classified as inhibitors or stimulators/substrates by comparing P-gp ATPase activity with the basal activity; stimulators give results higher than 100%, while inhibitors result below 100% of the basal activity. […] The results are presented in Figure 2 as the difference between the luciferase luminescence observed when treated with the tested compounds and with vanadate and compared with the basal activity (100%).
The P-glycoprotein ATPase assay was assessed using the P-gp-Glo^TM Assay System (Promega, WI, USA). The assay was performed according to the manufacturer’s instructions. Briefly, 20 µL of recombinant human P-gp membranes (1.25 mg/mL), expressing high levels of human P-gp, were incubated in 20 µL of P-gp-Glo^TM assay buffer for 5 min at 37 °C. […] The reaction was initiated by adding 10 µL of 25 mM MgATP, and incubated at 37 °C for 40 min. The reaction was stopped after adding 50 µL of ATP Detection Reagent, and the samples and controls were incubated at room temperature for 20 min. The emitted luciferase-generated luminescent signal was measured in a CLARIOstar Plus plate reader (BMG Labtech, Ortenberg, Germany) at 580 nm. The relative ATPase activity was calculated based on the ratio between the luminescence measured of the P-gp ATPase activity of each compound and the basal P-gp ATPase activity according to Equation (3): (3) Relative ATPase activity= Lumtreated−Lumuntreated /LumNa3VO4/Lumuntreated

Colo320 cells [3] = experiment: Checkerboard drug combination assay with doxorubicin; format: cell-based, human; conditions: for Type of interaction: Colo320; for CI at IC50 (combination index): Colo320, 50% growth inhibition
Experimental: The interaction of lycorine (1) and some selected derivatives (2, 5, 9, 13, 16, 19, 25, and 26) in combination with the chemotherapeutic drug doxorubicin was performed by the checkerboard assay, a widely used technique for assessing drug interactions, in resistant human Colo320 colon adenocarcinoma cells. The type of drug–drug interaction was evaluated by using the Chou and Talalay method for drug combination and expressed using the combination index (CI) values, and therefore evaluated as synergism (CI < 1), additive (CI = 1), or antagonist (CI > 1).
Drug combination interactions between the compounds and the chemotherapeutic drug doxorubicin were assessed by the checkboard microplate assay on the resistant Colo320, expressing the P-gp transporter. Doxorubicin was serially diluted in the horizontal direction in 100 µL, starting with 8.6 µM, and the compounds were subsequently diluted in the vertical direction in 50 µL. The starting concentration was determined based on the IC50 values. The cells were resuspended in a culture medium and distributed into each well in 50 µL, containing 6 × 10^3 cells, to a final volume of 200 µL per well. The plates were incubated for 72 h at 37 °C in a CO2 incubator, and the cell growth was determined by the MTT staining method, as described previously. Drug interactions were evaluated using CompuSyn software to plot 4 or 5 data points for each ratio (ref software). The results were expressed in terms of combination index (CI) values of 50% growth inhibition, in which a CI value close to 1 indicates additivity, while a CI < 1 is defined as synergy, and a CI > 1 as antagonism.

MRC-5 cells = experiment: MTT antiproliferative assay, normal lung fibroblasts; format: cell-based; conditions: Homo sapiens, normal embryonal lung fibroblasts, 72 h, mean ± SD, read-out: IC50 MCR-5 (C)
Experimental: as §1, §2, §3

| IC50 (Colo320 cells [1]) [µM] | IC50 (Colo205 cells) [µM] | Effect on basal P-gp ATPase activity [2] | CI at IC50 (combination index) (Colo320 cells [3]) | SMILES | SI (selectivity index) C/B (Colo320 cells [1]) | RR (relative resistance ratio) B/A (Colo320 cells [1]) | SI (selectivity index) C/A (Colo205 cells) | Type of interaction (Colo320 cells [3]) | IC50 (MRC-5 cells) [µM] |
| --- | --- | --- | --- | --- | --- | --- | --- | --- | --- |
| 10.4 ± 0.28 | > 100 | decreased the basal activity | 0.56 | O=C(NCCc1ccccc1)OC1C=C2CCN3Cc4cc5c(cc4C(C1OC(=O)NCCc1ccccc1)C23)OCO5 (stereo not shown) [Compound 9, Lycorine 1,2-diyl bis(phenethylcarbamate)] | 0.43 | <0.10 | <0.045 | Synergism |  |
| 7.64 ± 0.15 | 26.5 ± 0.476 | decreased the basal activity | 0.88 | CC(C)(C)c1ccc(CNC(=O)OC2C=C3CCN4Cc5cc6c(cc5C(C2O)C34)OCO6)cc1 (stereo not shown) [Compound 19, Lycorine 2-yl [4-(tert-butyl)benzyl]carbamate] | 5.66 | 0.28 | 1.63 | Slight synergism | 43.3 ± 0.75 |
| 40.4 ± 1.9 | 19.3 ± 0.87 | decreased the basal activity | 0.88 | O=C(NCc1ccc(Cl)cc1)OC1C=C2CCN3Cc4cc5c(cc4C(C1O)C23)OCO5 (stereo not shown) [Compound 2, Lycorine 2-yl (4-chlorobenzyl)carbamate] | 1.44 | 2.09 | 3.01 | Slight synergism | 58.1 ± 0.83 |
| 3.14 ± 0.05 | 47.7 ± 1.35 | decreased the basal activity | 0.50 | O=C(NCCc1ccc(Cl)cc1)OC1C=C2CCN3Cc4cc5c(cc4C(C1OC(=O)NCCc1ccc(Cl)cc1)C23)OCO5 (stereo not shown) [Compound 25, Lycorine 1,2-diyl bis[(4-chlorophenethyl)carbamate]] | 1.51 | 0.065 | 0.099 | Synergism | 4.75 ± 0.08 |
| 37.9 ± 1.37 | 53.9 ± 0.98 | decreased the basal activity | 0.88 | O=C(NCCc1ccc(Cl)cc1)OC1C=C2CCN3Cc4cc5c(cc4C(C1O)C23)OCO5 (stereo not shown) [Compound 26, Lycorine 2-yl (4-chlorophenethyl) carbamate] | 1.37 |  | 0.96 | Slight synergism | 52.1 ± 3.09 |
| 32.7 ± 0.62 | > 100 | decreased the basal activity | 0.13 | Cc1ccc(CNC(=O)OC2C=C3CCN4Cc5cc6c(cc5C(C2OC(=O)NCc2ccc(C)cc2)C34)OCO6)cc1 (stereo not shown) [Compound 5, Lycorine 1,2-diyl bis[(4-methylbenzyl)carbamate]] | 0.17 |  | <0.057 | Strong synergism | 5.75 ± 0.47 |

| SMILES | IC50 (Colo320 cells [1]) [µM] | IC50 (Colo205 cells) [µM] | Effect on basal P-gp ATPase activity [2] | CI at IC50 (combination index) (Colo320 cells [3]) | SI (selectivity index) C/B (Colo320 cells [1]) | RR (relative resistance ratio) B/A (Colo320 cells [1]) | SI (selectivity index) C/A (Colo205 cells) | Type of interaction (Colo320 cells [3]) | IC50 (MRC-5 cells) [µM] |
| --- | --- | --- | --- | --- | --- | --- | --- | --- | --- |
| O[C@H]1[C@H]2c3cc4c(cc3CN3CCC(=C[C@@H]1O)[C@H]23)OCO4 [Compound 1, lycorine] | 0.93 ± 0.01 | 1.06 ± 0.02 |  |  | 3.26 | 0.87 | 2.86 | Moderate antagonism | 3.04 ± 0.11 |

Reference: PMC9916770, “Lycorine Carbamate Derivatives for Reversing P-glycoprotein-Mediated Multidrug Resistance in Human Colon Adenocarcinoma Cells” (International Journal of Molecular Sciences, 2023)
